We go through five compounds from patent US20260048041A1, “COMPOSITION FOR REMOVING HELICOBACTER PYLORI COMPRISING ZASTAPRAZAN OR PHARMACEUTICALLY ACCEPTABLE SALT THEREOF” (JEIL PHARMACEUTICAL CO., LTD., priority 2022, published 2026).

The Cmax is the highest concentration seen after dosing.

SMILES strings stand for the structures.

Series [1] concerns Helicobacter pylori 26695 (ATCC700329). Put plainly: Anti-H. pylori in vitro efficacy test, MIC and MBC by microdilution (CLSI). Particulars: strain 26695; unit not given in table (method uses μg/mL). Format: cell-based. The protocol: Helicobacter pylori 26695 (ATCC700329): A strain isolated from a patient known to be associated with the development of gastric cancer. The strain is cytotoxin associated gene (CagA)-positive and vacuolating cytotoxin (VacA)-positive and has a well-known genetic background, so it is mainly used for research purposes. An antibiotic susceptibility testing was performed using the microdilution method according to the CLSI guideline. […] The bacteria were inoculated into wells containing only medium without antibiotics to prepare the positive control group, and the wells containing only medium without antibiotics or inoculated bacteria were used as the negative control group. The concentration range of the test substances, zastaprazan (JP-1366) and fexuprazan, was determined through preliminary experiments. […] The lowest concentration at which no bacterial growth was observed was determined as the MIC. […] The lowest concentration at which no bacteria growth occurred was determined as the MBC. […] All tests were performed in duplicate, and the results were determined by conducting the experiments in triplicate.
A general note: In broth dilution the organism is exposed to a series of concentrations in liquid medium.

In series [2] the test system is Helicobacter pylori SS1 (mouse colonizing strain). The description is as above. It counts as cell-based. The protocol: (§1) Helicobacter pylori SS1 (mouse colonizing strain): A strain known as Sydney strain. The strain is CagA-positive and VacA-positive and has been confirmed to infect and colonize in C57BL/6 mice. The strain is used in animal testing. An antibiotic susceptibility testing was performed using the microdilution method according to the CLSI guideline. […] The bacteria were inoculated into wells containing only medium without antibiotics to prepare the positive control group, and the wells containing only medium without antibiotics or inoculated bacteria were used as the negative control group. The concentration range of the test substances, zastaprazan (JP-1366) and fexuprazan, was determined through preliminary experiments. […] The lowest concentration at which no bacterial growth was observed was determined as the MIC. […] The lowest concentration at which no bacteria growth occurred was determined as the MBC. […] All tests were performed in duplicate, and the results were determined by conducting the experiments in triplicate.

In series [3] the test system is Helicobacter pylori (ATCC43504). The description is as above. As to conditions: strain 43504, unit not given in table (method uses μg/mL); for MIC: 3 days, microaerobic. Format: cell-based. The protocol: as §1, with “(ATCC43504): Type” for “SS1 (mouse colonizing strain): A”, “for antibiotic susceptibility testing according” for “known as Sydney strain. The strain is CagA-positive and VacA-positive and has been confirmed”, “the Clinical & Laboratory Standards Institute (CLSI) guidelines.” for “infect and colonize in C57BL/6 mice. The strain is used in animal testing.”

The subject of series [4] is Helicobacter pylori SS1 (mouse colonizing strain). Put plainly: Efficacy of JP-1366 to enhance antibacterial activity of clarithromycin, MIC and MBC by microdilution. Format: cell-based. Particulars: H. pylori SS1. Here is the method:
Helicobacter pylori SS1 (mouse colonizing strain): Known as Sydney strain, the strain is […] and VacA-positive, and has been confirmed to colonize mice C57BL/6 and is used in animal experiments.
An antibiotic susceptibility test was performed by the microdilution method according to CLSI guideline.
The antibiotic susceptibility test was performed using MH broth (7% horse serum, 0.4% IsoVitalex), and the susceptibility test medium for zastaprazan (JP-1366) was prepared at this time. […] Using the medium prepared in this way, clarithromycin was serially diluted 2-fold and in 16 steps, with a maximum concentration of 16 μg/mL. Wells containing only the medium without antibiotics were used as a negative control group, and wells inoculated only with the bacteria in the medium without antibiotics were used as a positive control group. H. pylori stored in a deep freezer (−70° C. or lower) was inoculated onto BHI agar (w/7% laked horse blood, 0.4% IsoVitalex) and cultured for three days at 37° C. under microaerophilic conditions (Oxoid CampyGene gas pk) and then subcultured onto a fresh medium. The cultured bacteria were harvested, suspended in PBS, and inoculated into each well at a concentration of 5×10^5 CFU/mL. Thereafter, the bacteria were cultured for three days at 37° C. under microaerophilic conditions of 5% 02, 10% CO2, and 85% N2 gas. The lowest concentration of the sample at which no bacterial growth was observed was determined as the MIC. […] The lowest concentration at which no bacterial growth was observed was determined as the minimum bactericidal concentration(MBC).

The nature of series [5]: Drug interaction (PK) trial of JP-1366, amoxicillin and clarithromycin in healthy adult volunteers. Format: in vivo, human. The source says:
Test drug and administration period A. Test drug 1: […] Jeil Pharmaceutical • Dose: […] Oral B. […] Selection and classification of clinical trial subjects […]

Series [6] in a line: Solubility seen during MIC analysis. Format: physicochemical. Particulars: in MIC medium; suspension formed, MIC analysis difficult. The source says: Referring to Table 4 below, since the solubility of zastaprazan (JP-1366) was low, the MIC analysis was difficult (poor solubility, formation of suspension, interference in visual/absorbance analysis), so the inhibitory effect on the H. pylori strains was confirmed through the MBC index.

Series [7] deals with patients with erosive gastroesophageal reflux disease. Put plainly: Phase 2 clinical trial, healing of mucosal breaks and symptoms. Format: in vivo, human. The protocol: H. pylori testing was performed by 13C-urea breath test (13C-UBT), gastroscopy (Campylobacter-like organism test, CLO), or tissue biopsy to confirm H. pylori positivity/negativity. The testing was performed at the screening visit (Visit 1) or the randomization visit (Visit 2), and results from the same institution within 29 days prior to the randomization visit (Visit 2) could be substituted. This clinical trial was a randomized, double-blind, active-controlled, multicenter, phase 2 clinical trial targeting patients with erosive gastroesophageal reflux disease. After the subjects gave written consent to participate in the clinical trial, a screening test was conducted. […] At this time, the subjects were stratified by grade (A, B, C, D) according to the LA classification system classified by upper gastrointestinal endoscopy. Randomly assigned subjects took the clinical trial drug once a day according to the assigned administration group for four weeks. After four weeks of administration of the clinical trial drug, the subjects visited the clinical trial institution to undergo an upper gastrointestinal endoscopy to assess whether they were healed. Healed subjects underwent a Safety Follow-Up (F/U) two weeks later, and unhealed subjects were administered the clinical trial drug for additional four weeks (a total of 8 weeks of administration) and visited the clinical trial institution to undergo an upper gastrointestinal endoscopy. […] 3.

Setting [8] is: strain SS1, unit not given in table (method uses μg/mL).
Setting [9] is: MH medium + JP1366 at ½ MIC concentration, unit not given.
The mark [10] stands for this setting: MH medium, unit not given in table (method uses μg/mL).
Where [11] appears, read: JP-1366, three-drug regimen vs JP-1366 alone.

For the compound `CC1(C)S[C@@H]2[C@H](NC(=O)[C@H](N)c3ccc(O)cc3)C(=O)N2[C@H]1C(=O)O` [Amoxicillin], the MBC in series [1] was 0.032; in series [2] (setting [8]) it was 0.25; in series [3] it was 0.032. For the same compound, the MIC in series [1] and in series [3] was 0.016~0.032 in each case.
`CC[C@H]1OC(=O)[C@H](C)[C@@H](O[C@H]2C[C@@](C)(OC)[C@@H](O)[C@H](C)O2)[C@H](C)[C@@H](O[C@@H]2O[C@H](C)C[C@H](N(C)C)[C@H]2O)[C@](C)(OC)C[C@@H](C)C(=O)[C@H](C)[C@@H](O)[C@]1(C)O` [Clarithromycin]: the MBC is given as 0.032 to 0.063 in series [4] (setting [9]); 0.063 to 0.125 in series [4] (setting [10]); 0.125 in series [1]; 0.125 in series [2] (setting [8]); 0.063 in series [3]. The MIC is listed as 0.032 to 0.063 in series [4] (setting [9]); 0.032 to 0.063 in series [4] (setting [10]); 0.063~0.125 in series [1]; 0.032 in series [2] (setting [8]); 0.032 in series [3]. Moreover, the “lowering of MBC in medium containing JP1366” value in series [4] (medium with zastaprazan (JP1366) at ½ MIC concentration vs MH medium) is “about ½”.
For `CNCc1cn(S(=O)(=O)c2cccc(F)c2)c(-c2ccc(F)cc2F)c1OC` [Fexuprazan], the MBC in series [1], in series [2] (setting [8]) and in series [3] was 64~128 throughout. In addition, the MIC in series [1], in series [2] (setting [8]) and in series [3] was 64 each time.
Consider `Cc1cccc(C)c1CNc1cc(C(=O)N2CCC2)cn2c(C)c(C)nc12.O=C(O)CC(O)(CC(=O)O)C(=O)O` [JP-1366, azetidin-1-yl{8-[(2,6-dimethylbenzyl)amino]-2,3-dimethylimidazo[1,2-a]pyridin-6-yl}methanone citrate salt], for which the “AUCT higher when T3 was administered compared to T1” value in series [5] (setting [11]) is listed as “approximately 2.4 times”. In addition, the “AUCτ, Geometric LS Mean Ratio (T3/T1), Point Estimate” value in series [5] (setting [11]) is recorded as 2.4422. The “Cmax, ss higher when T3 was administered compared to T1” value in series [5] (setting [11]) is “approximately 1.8 times”. Also, in series [5] (setting [11]), the “Cmax, ss, Geometric LS Mean Ratio (T3/T1), Point Estimate” value is given as 1.7766. Besides, in series [5] (human, in vivo, JP-1366 after T1: JP-1366 20 mg 1 capsule alone, twice daily, 5 days, oral, N = 24, read-out: Cmax, ss, Geometric LS Mean), the Cmax turned out to be 156 ng/mL. Besides, in series [5] (zastaprazan combined with amoxicillin and clarithromycin), the “increase of area under the concentration-time curve (AUCT) compared to single administration” value is “more than twofold”. For the same compound, the MBC in series [1] is 16~32; in series [2] (Helicobacter pylori, stated in Example 5 method, H. pylori SS1, read-out: maximum MBC value), 32 µg/mL; in series [2] (setting [8]), 16~32; in series [3] it was 8~32. For the same compound, the solubility result in series [6] is listed as “low”. In addition, the “healing effect compared with Nexium 40 mg” value in series [7] (H. pylori-negative group, 20 mg) is listed as “the same effect as Nexium 40 mg”. Further, the “symptoms (heartburn, acid reflux, heartburn/acid reflux) within 24 hours and for seven days after administration” value in series [7] (JP-1366 5 mg two capsules (10 mg) once a day) and in series [7] (JP-1366 20 mg one capsule once a day) was “all symptoms tended to be ameliorated” throughout.
Consider `COc1ccc2[nH]c([S+]([O-])Cc3ncc(C)c(OC)c3C)nc2c1` (stereo not drawn) [Omeprazole], for which the MBC in series [1] is listed as 64~128; in series [2] (setting [8]) it was 64~128; in series [3] it was 64. For the same compound, the MIC in series [1] is 32~64; in series [2] (setting [8]), 32~64; in series [3] it was 32.
